Data reported in publication PMC6435255 (Nature chemistry, 2018).

Legend:
hENT1 [1] = molecular target: T1, hENT1 (Homo sapiens, UniProt Q99808); assay type: cell-based; details: PK15-ENT1 cells, combined with rapadocin
T1 sequence (Q99808 1-456): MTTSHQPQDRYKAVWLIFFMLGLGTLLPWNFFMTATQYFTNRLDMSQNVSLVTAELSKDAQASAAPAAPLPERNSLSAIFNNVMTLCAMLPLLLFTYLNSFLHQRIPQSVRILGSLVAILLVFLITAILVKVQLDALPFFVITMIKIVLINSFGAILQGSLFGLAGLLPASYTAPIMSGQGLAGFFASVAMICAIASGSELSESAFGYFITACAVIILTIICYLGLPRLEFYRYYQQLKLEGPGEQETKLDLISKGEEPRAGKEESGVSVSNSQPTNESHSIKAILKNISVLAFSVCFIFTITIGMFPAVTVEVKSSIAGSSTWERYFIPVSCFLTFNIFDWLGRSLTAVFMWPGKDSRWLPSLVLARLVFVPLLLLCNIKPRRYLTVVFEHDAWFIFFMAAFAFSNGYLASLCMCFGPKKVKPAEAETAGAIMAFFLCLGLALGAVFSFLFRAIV

hENT1 [2] = molecular target: T1, hENT1; assay: Affinity pulldown with biotinylated rapadocin, red blood cell membrane extract; assay type: binding; details: competitor
hENT1 [3] = molecular target: hENT1 (Homo sapiens, UniProt P62942+Q99808); assay: GST-FKBP12 affinity pulldown, red blood cell membrane extract; assay type: binding; details: competitor
Chain of hENT1 (Homo sapiens, UniProt P62942+Q99808) (P62942 whole entry, one chain of several): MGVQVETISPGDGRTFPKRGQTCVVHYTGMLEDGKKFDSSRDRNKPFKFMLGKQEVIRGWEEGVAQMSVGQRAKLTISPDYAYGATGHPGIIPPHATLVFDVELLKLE

HUVEC = assay: Adenosine; assay type: cell-based, human
[4] = test system: Id1-Luc luciferase reporter; assay: BMP reporter gene assay; assay type: cell-based, human; details: Jurkat T cells, 10 µM, 18 h

Structure (SMILES)	antagonism of rapadocin inhibition of hENT1-mediated thymidine uptake (hENT1 [1])	competition of hENT1 binding of the biotin-rapadocin probe (hENT1 [2])	competition of GST-FKBP12-rapadocin association with hENT1 (hENT1 [3])	IC50, nucleoside uptake (HUVEC)	activation of the Id1-Luc reporter gene [4]
COc1ccc(-c2ccc3c(N4CCOC[C@@H]4C)nc(N4CCOC[C@@H]4C)nc3n2)cc1CO [AZD8055]	did not antagonize	–	–	–	–
C=CC[C@@H]1/C=C(\C)C[C@H](C)C[C@H](OC)[C@H]2O[C@@](O)(C(=O)C(=O)N3CCCC[C@H]3C(=O)O[C@H](/C(C)=C/[C@@H]3CC[C@@H](O)[C@H](OC)C3)[C@H](C)[C@@H](O)CC1=O)[C@H](C)C[C@@H]2OC [FK506]	antagonize	not appreciably	sensitive to competition	low micromolar range	activated the Id1-Luc reporter gene
CO[C@H]1C[C@@H]2CC[C@@H](C)[C@@](O)(O2)C(=O)C(=O)N2CCCC[C@H]2C(=O)O[C@H]([C@H](C)C[C@@H]2CC[C@@H](O)[C@H](OC)C2)CC(=O)[C@H](C)/C=C(\C)[C@@H](O)[C@@H](OC)C(=O)[C@H](C)C[C@H](C)/C=C/C=C/C=C/1C [rapamycin]	antagonize	not appreciably	sensitive to competition	low micromolar range	activated the Id1-Luc reporter gene
